Reference: US4460605A, “2-[2'-Hydroxy-3'-(1,1-dimethylpropylamino)-propoxy ]-β-phenylpropiophenone, its physiologically acceptable acid addition salts, and pharmaceutical compositions” (Helopharm W. Petrik & Co., priority 1981, dated 1984)
Counter-ions that a name gives are not always drawn. Like-named read-outs stand apart in the source and are kept apart here.

Legend:
[1] = tested on: model arrhythmias; assay: Tests with animals having model arrhythmias (known compounds); format: in vivo; details: average (1-3 mg/kg) intravenous doses
[2] = tested on: model arrhythmias; details: cited from earlier work; for dose at which antiarrhythmic effect appeared: dogs, cats and rabbits
[3] = tested on: heart rate disorders; details: human medicine; cited from earlier work
[4] = tested on: rhythm disorders produced by occlusion of a branch of the coronary vessels; assay: Antiarrhythmic effect after oral administration, rhythm disorders by occlusion of a branch of the coronary vessels in dogs; format: in vivo, dog; details: 10 mg/kg intragastric
Experimental: Again in dogs, the excellent antiarrhythmic effect could be observed after oral administration too. Rhythm disorders were produced by occlusion of a branch of the coronary vessels. The inventive compound was administered intragastrically in the form of the hydrochloride the next day.

[5] = tested on: circulation parameters; assay: Circulation parameters in dogs (method of Hapke and Prigge); details: for Diastolic blood pressure (A. femoralis) / Heart beat rate change / Systolic blood pressure (A. femoralis) / Coronary flow volume / Left ventricular peak pressure / Maximum rate of pressure rise (dp/dt) / Peripheral blood flow volume (A. femoralis): dog
Text: For the test method see H. J. Hapke and E. Prigge, Arzneim.-Forsch.

[6] = tested on: CHCl3-adrenalin-model arrhythmia; assay: animal or person; format: in vivo, dog
Experimental: The antiarrhythmic effect of the compound of formula I was tested in dogs according to the method of Hapke and Prigge, Arzneim.-Forsch. (Drug Res.), loc. cit. A model arrhythmia which was essentially characterized by ventricular extrasystoles at absolute arrhythmia was produced by infusion of chloroform and adrenalin (epinephrine). At the onset of these rhythm disorders the inventive compound was injected intravenously as aqueous solution of the hydrochloride.
. […] (Drug Res.), loc. cit.

[7] = LD50 acute toxicity in dog; details: in vivo, iv; dog i.v.

CCCCNCC(O)COc1ccccc1C(=O)CCc1ccccc1 (stereo not drawn) [n-butylamino]
antiarrhythmic effect [1]: practically no antiarrhythmic effect

CCCNCC(O)COc1ccccc1C(=O)CCc1ccccc1 (stereo not drawn) [propafenone]
hemodynamic effect ([2]; average (1-3 mg/kg) and higher (5 mg/kg) intravenous doses): hypotensive, negative inotropic effect and dilates the coronary arteries | dose at which antiarrhythmic effect appeared ([2]; intravenous): 1 mg/kg | dose at which antiarrhythmic effect appeared ([2]; oral): 2 to 10 mg/kg | heart rate ([2]; doses producing an antiarrhythmic effect): not substantially affected | antiarrhythmic effect ([2]; only one of the compounds of German Pat. No. 2 001 431): shows an antiarrhythmic effect | effect in therapy of heart rate disorders [3]: antiarrhythmic with local anaesthetic, quinidine-like and also β-receptor blocking effect

CCC(C)(C)NCC(O)COc1ccccc1C(=O)CCc1ccccc1 (stereo not drawn) [diprafenone-HCl, 2-[2'-hydroxy-3'-(1,1-dimethylpropylamino)-propoxy]-β-phenylpropiophenone-hydrochloride]
extrasystoles ([4]; 30 minutes after application): no extrasystoles could be observed | extrasystoles ([4]; for 10 minutes after application): observed unchanged | ECG ([4]; for the 24 hours observed): remained normal | effect on peripheral and coronary circulation ([5]; comparable doses): does not have an effect on the peripheral and coronary circulation | Diastolic blood pressure (A. femoralis) ([5]; 0.5 mg/kg i.v.): -16 mm Hg | Heart beat rate change ([5]; 0.5 mg/kg i.v.): -8 min⁻¹ | Systolic blood pressure (A. femoralis) ([5]; 0.5 mg/kg i.v.): -13 mm Hg | Diastolic blood pressure (A. femoralis) ([5]; 1.0 mg/kg i.v.): -24 mm Hg | Heart beat rate change ([5]; 1.0 mg/kg i.v.): -22 min⁻¹ | Systolic blood pressure (A. femoralis) ([5]; 1.0 mg/kg i.v.): -17 mm Hg | Coronary flow volume ([5]; 3.0 mg/kg i.v.): +56% | Diastolic blood pressure (A. femoralis) ([5]; 3.0 mg/kg i.v.): -39 mm Hg | Heart beat rate change ([5]; 3.0 mg/kg i.v.): -24 min⁻¹ | Left ventricular peak pressure ([5]; 3.0 mg/kg i.v.): -46 mm Hg | Maximum rate of pressure rise (dp/dt) ([5]; 3.0 mg/kg i.v.): -30% | Systolic blood pressure (A. femoralis) ([5]; 3.0 mg/kg i.v.): -45 mm Hg | heart beat rate ([5]; doses of 0.5 mg/kg i.v., contrary to propafenone): reduction of the heart beat rate | time to full antiarrhythmic effect ([6]; dogs, 0.05 mg/kg i.v.): ≤ 45 s | antiarrhythmic effect (sinus rhythm in ECG became normal) ([6]; dogs, 0.05 mg/kg i.v., all dogs treated): fully effective | LD50 [7]: 10 mg/kg

CCCNCC(O)COc1ccccc1C(=O)CCc1ccccc1 (stereo not drawn) [propafenone-HCl]
Coronary flow volume ([5]; 1.0 mg/kg i.v.): +14% | Left ventricular peak pressure ([5]; 1.0 mg/kg i.v.): -5 mm Hg | Peripheral blood flow volume (A. femoralis) ([5]; 1.0 mg/kg i.v.): +10% | Coronary flow volume ([5]; 3.0 mg/kg i.v.): +30% | Diastolic blood pressure (A. femoralis) ([5]; 3.0 mg/kg i.v.): -40 mm Hg | Left ventricular peak pressure ([5]; 3.0 mg/kg i.v.): -25 mm Hg | Maximum rate of pressure rise (dp/dt) ([5]; 3.0 mg/kg i.v.): -29% | Peripheral blood flow volume (A. femoralis) ([5]; 3.0 mg/kg i.v.): +36% | Systolic blood pressure (A. femoralis) ([5]; 3.0 mg/kg i.v.): -30 mm Hg | Coronary flow volume ([5]; 5.0 mg/kg i.v.): +43% | Left ventricular peak pressure ([5]; 5.0 mg/kg i.v.): -42 mm Hg | Maximum rate of pressure rise (dp/dt) ([5]; 5.0 mg/kg i.v.): -47% | Coronary flow volume ([5]; 10.0 mg/kg i.v.): +67% | Diastolic blood pressure (A. femoralis) ([5]; 10.0 mg/kg i.v.): -60 mm Hg | Left ventricular peak pressure ([5]; 10.0 mg/kg i.v.): -70 mm Hg | Maximum rate of pressure rise (dp/dt) ([5]; 10.0 mg/kg i.v.): -62% | Systolic blood pressure (A. femoralis) ([5]; 10.0 mg/kg i.v.): -65 mm Hg

CCC(C)NCC(O)COc1ccccc1C(=O)CCc1ccccc1 (stereo not drawn) [1-methylpropylamino]
antiarrhythmic effect [1]: practically no antiarrhythmic effect

CC(C)(C)NCC(O)COc1ccccc1C(=O)CCc1ccccc1 (stereo not drawn) [tert-butylamino]
antiarrhythmic effect [1]: practically no antiarrhythmic effect

CCC(C)(C)NCC(O)COc1ccccc1C(=O)CCc1ccccc1 (stereo not drawn) [diprafenone, 2-[2'-hydroxy-3'-(1,1-dimethylpropylamino)-propoxy]-β-phenylpropiophenone]
minimal effective dose ([6]; Canis lupus familiaris, intravenous, model arrhythmias, read-out: dose showing an antiarrhythmic effect): 0.05 mg/kg | increase of therapeutic quotient as compared to propafenone ([6]; dog, in vivo): 10-20 times
